# From patent publication US9186344B2, “Glycogen or polysaccharide storage disease treatment method” (Baylor Research Institute, priority 2004, dated 2015)
# Tests used:
# Format in all cases: in vivo, human
# [1] = system: FOD patients (CPT I, CACT, CPT II, VLCAD, TFP, LCHAD, SCAD deficiency); assay: Odd chain fatty acid (triheptanoin) diet in patients with mitochondrial fat oxidation defects (FOD); conditions: for Patient mortality / Patient mortality (deaths/patients): C7 Diet
# From the text: Other examples of FODs that derive from errors in metabolism include: Carnitine Palmitoyl Transferase I (CPT I) deficiency, Carnitine-Acylcarnitine Translocase (CACT) deficiency, Carnitine Palmitoyl Transferase […] deficiency, very long chain acyl-CoA dehydrogenase (VLCAD) deficiency, Trifunctional Protein (TFP) deficiency, long chain acyl 3-hydroxy CoA dehydrogenase (LCHAD) and short chain acyl CoA dehydrogenase (SCAD) deficiency. Patients having each of these diseases were located and placed on an odd chain fatty acid diet, with informed consent and following under IRB.
# The odd chain fatty acid diet and therapy of the present invention was compared to conventional treatments, which include: (1) a low fat, high carbohydrate diet; avoid fasting; frequent or continuous feeding and night time corn starch; or (2) a medium chain triglyceride (MCT oil) for long chain disorders; or (3) insulin and glucose to inhibit lipolysis. However, current treatments fail to treat the hypoglycemia and hepatomegaly (which often persist), the frequency and severity of Rhabdomyolysis; muscle weakness and fatigue are not improved and heart function often remains abnormal. Biochemically, the failure of existing therapies leave patients with impaired Acetyl-CoA production and ketogenesis, there remains an increase Acyl-CoA:CoA (mitochondrion) ratio during illness, a decreased NADH:NAD ratio during illness (mitochondrion), hypoglycemia and hyperammonemia.
# Table 4 summarized a comparison of patent mortality for patients with FOD of conventional treatment (based on the literature, see *Neonatal onset; Conventional Diet Rx: JIMD 22: 488,1999), and the odd chain fatty acids of the present invention. There is a demonstrable increase in patient survival across a number of FODs.
# [2] = system: GSDII patient; assay: Clinical course on triheptanoin diet, Example 2 patient
# From the text: Clinical Course. Following informed consent, the patient agreed to enter an approved IRB Protocol for dietary therapy with triheptanoin oil. […] Maximal inspiratory and expiratory pressures were 60 cm of water. […] And pO2=62.
# The oral diet consisted of 2900 Kcal on admission. […] Total caloric intake was maintained at ˜2800 per day during his 30 day admission.
# Initially, the patient required assistance and supervision with grooming, upper and lower extremity dressing, bathing, and toileting. The patient also required maximal assistance with ambulation and transfers from bed to wheelchair. […] They continued to require supervision, but without assistance, with transfers from bed to wheelchair and to toilet and shower. They had clearly made improvements in strength and endurance with exercise.
# [3] = system: adult-onset GSD II (acid maltase deficiency) patient; assay: Clinical course and pCO2 on triheptanoin diet, Example 1 patient
# From the text: During the subsequent 2 years, the patient experienced progressive muscle weakness, affecting strength and endurance, swallowing and producing urgency for urination and defecation. The patient's breathing became a major issue and weight had decreased from ˜127 to 101 lbs (46 Kg) over this interval. […] Home O2 was started and upon respiratory arrest was intubated and unsuccessfully extubated leading to emergency admission lasting one month. Following informed consent, the patient agreed to enter an approved Institutional Review Board (IRB) Protocol for dietary therapy with triheptanoin oil.
# Clinical and Biochemical Course on Therapy. […] Esophageal dysmotility was documented. A percutaneous endoscopic gastrostomy (PEG) was placed on the sixth hospital day.
# The diet was based on vivonex and ˜1500 Kcal was given by nasogastric tube, on admission. […] Total caloric intake was raised from ˜1500 to 1700 to 1900 per day with these dietary changes during […] 33 day admission.
# The patient began ambulating by the 10th day that improved steadily, showering with assistance by the 28th day. Pneumonia on day 17 responded to therapy and was extubated on day 23. They were discharged on bilevel positive airway pressure (BIPAP), the C7 diet, and carnitine supplement.
# [4] = system: adult-onset GSD II patient; assay: Urinary organic acids / blood acylcarnitines, Example 1 patient; conditions: C7 increased from 26 to 40% of total caloric intake (1.0 to 2.0 gm/Kg/day)
# Protocol: (§1) Organic Acids may be measured as follows. Organic acids in urine specimens are determined with isolation by Liquid Partition Chromatography (LPC) and quantitative Gas Chromatography-Mass Spectrometry (GCMS) using an internal standard. The specimen is derivatized to form pentafluorobenzyl oximes (PFBO) of oxo-acids and the organic acids isolated by Liquid Partition chromatography on silicic acid hydrated with dilute sulfuric acid and eluted with mixtures of tert-Amyl alcohol and chloroform. After drying, the organic acids are derivatized to form volatile trimethylsilyl (TMS) derivatives for separation by capillary Gas Chromatography (GC) with temperature programming. Detection is by Mass Spectrometry (MS) with identification of the organic acids by their mass spectra. Organic acids are quantified by peak areas of reconstructed ion chromatograms with internal standards and calibration curves.
# Acylcarnitine Profiles. […] An automated sample introduction system delivers the samples to the electrospray tandem mass spectrometer (ESI-MS/MS) operating in the multiple channel analysis mode in which acylcarnitines are identified, profiled, and quantified with stable isotopically labeled internal standards. This test also provides quantification of free, sum of acylcarnitines, and total carnitine levels. […]
# [5] = system: GSDII patient; assay: Urinary organic acids, blood acylcarnitines and plasma amino acids, Example 2 patient; conditions: thirteen hours after initiating the C7 diet
# Protocol: as §1
# Acylcarnitine Profiles. Acylcarnitines and carnitine levels in dried blood spots (dbs), plasma and amniotic fluid by automated electrospray tandem mass spectrometry Acylcarnitines are extracted from blood spots, plasmas and amniotic fluid with methanol containing stable isotopically labeled internal standards. The extract is derivatized to form butyl esters. An automated sample introduction system delivers the samples to the electrospray tandem mass spectrometer (ESI-MS/MS) operating in the multiple channel analysis mode in which acylcarnitines are identified, profiled, and quantified with stable isotopically labeled internal standards. This test also provides quantification of free, sum of acylcarnitines, and total carnitine levels.
# Citrate supplementation was continued throughout the treatment.
# [6] = dietary triheptanoin supplementation, FOD patients
# [7] = on C7 diet and carnitine supplement
structure (smiles),measurement,setting,value
"CCCCCCC(=O)OCC(COC(=O)CCCCCC)OC(=O)CCCCCC [C7, triheptanoin]",Patient mortality,"[1]; CACT, neonatal onset",100%
same,Patient mortality (deaths/patients),"[1]; CACT, neonatal onset",1/1
same,retinopathy (Choroideremia),[1]; LCHAD patients,unchanged
same,Patient mortality,[1]; LCHAD,0%
same,Patient mortality (deaths/patients),[1]; LCHAD,0/9
same,peripheral neuropathy,[1]; TFP patients,unchanged
same,Patient mortality,[1]; TFP,0%
same,Patient mortality (deaths/patients),[1]; TFP,1/5
same,Patient mortality,[1]; VLCAD,5%
same,Patient mortality (deaths/patients),[1]; VLCAD,1/19
same,Rhabdomyolysis,[1]; [6],marked attenuation of Rhabdomyolysis
same,cardiomyopathies,[1]; [6],cardiomyopathies were resolved
same,glucose homeostasis,[1]; [6],normal glucose homeostasis was observed
same,hepatomegaly,[1]; [6],elimination of hepatomegaly
same,mortality,[1]; [6],reduced mortality
same,muscle strength and endurance,[1]; [6],improved muscle strength and endurance
same,CPK (creatine kinase) levels,"[1]; long-chain defects, FIG. 9",rapidly suppresses CPK levels
same,increase in total vital capacity,"[2]; at discharge compared to admission, diet plus physical therapy",700 mL
same,functional status at discharge,"[2]; intensive physical therapy and diet, 30 day admission","independent with grooming, upper and lower extremity dressing, toileting, and locomotion with a manual wheelchair"
same,pCO2 (35-45),"[3]; Hospital Day 1, C7 26% Kcal",43
same,pCO2 (35-45),"[3]; Hospital Day 4, C7 35% Kcal",51
same,pCO2 (35-45),"[3]; Hospital Day 7, C7 35% Kcal",42
same,pCO2 (35-45),"[3]; Hospital Day 23, C7 40% Kcal, extubated",48
same,pCO2 (35-45),"[3]; Hospital Day 33, C7 40% Kcal, discharge",44
same,gastrostomy feeds stopped (swallowing improved),[3]; after discharge,7 months
same,patient weight,"[3]; by 15 months post-discharge, 46 Kg on admission",60 kg
same,day of extubation,[3]; hospital admission on C7 diet,23 days
same,return to work half-time after discharge,[3]; [7],5 weeks
same,working full-time after discharge,[3]; [7],≤ 10 weeks
same,full vital capacity,[3]; post-discharge follow-up,40-45 % of predicted
same,urgency for urination and defecation,[3]; within 13 hours of beginning the C7 diet,had ceased and remained normal for the rest of the admission
same,pCO2,"[3]; within 13 hours of beginning the C7 diet, fell from 68, normal 35-45",43
same,propionyl overload from the metabolism of heptanoate,[4],without any evidence for propionyl overload
same,increase of plasma BCAA's,[5],~2 fold
same,increase of plasma Glutamine,[5],~2 fold
same,increase of plasma alanine level,[5],4 fold
